The values that follow come from US20240254119A1 (THIRD HARMONIC BIO, INC., priority 2022, published 2024).

The term IC50 denotes the concentration at which inhibition is half-maximal.

Each structure is given as a SMILES string. Bounds are passed on as bounds.

The experiment concerns the target T1, wtKIT (Homo sapiens, UniProt P10721).
T1 construct: 1888289AM in the reaction mixtures
Nature of the experiment: HTRF biochemical assay, wtKIT (phosphorylation of a peptide substrate). As to conditions: Table 4. Here is the method:
Exemplary compounds were tested for ability to inhibit the phosphorylation of a peptide substrate by the tyrosine kinase wt KIT, PDGFRα, or CSF-1R. Assay procedures and results are described below.
Enzyme, substrate, and cofactors (ATP and Mn^2+) are combined in a well of a microtiter plate and incubated for 3 hours at 25° C. At the end of the incubation, the reaction is quenched by the addition of an EDTA-containing buffer.
The substrate used in the CSF-1R and PDGFRα assay is FAM-[…]-CONH2 (FAM is carboxyfluorescein). Peptide should be >95% purity. The substrate for the KIT assay is FAM-[…]-NH2.
• 1. To a well of a 384-wellplate add 5 μL of 2× enzyme buffer (or control). • 2. Add 100 nL of 100× compound. Enzyme and compound may be pre-incubated at this time if desired. • 3. Add 5 μL of 2× substrate buffer. • 4. Incubate plate at 25° C. for 3 hours. • 5. Add 10 uL of anti-phosphotyrosine antibody buffer. • 6. Read plate in BioTek Synergy Reader. Reaction Conditions for wtKIT Assay
• 100 mM HEPES, pH 7.5 0.1% BSA • 0.01% Triton x-100 • 1 mM DTT • 10 mM MnCl2 • 10 μM Sodium Orthovanadate • 10 μM Beta-Glycerophosphate • 400 μM ATP • 1% DMSO (from compound) • 1 μM FAM-[…]-CONH2, 5.0 nM wtKIT Enzyme (1888289AM)* • *Specific activity may vary from lot to lot. Enzyme concentration may need to be adjusted to yield 10-20% conversion of substrate to product.

T1 sequence (P10721 26-976): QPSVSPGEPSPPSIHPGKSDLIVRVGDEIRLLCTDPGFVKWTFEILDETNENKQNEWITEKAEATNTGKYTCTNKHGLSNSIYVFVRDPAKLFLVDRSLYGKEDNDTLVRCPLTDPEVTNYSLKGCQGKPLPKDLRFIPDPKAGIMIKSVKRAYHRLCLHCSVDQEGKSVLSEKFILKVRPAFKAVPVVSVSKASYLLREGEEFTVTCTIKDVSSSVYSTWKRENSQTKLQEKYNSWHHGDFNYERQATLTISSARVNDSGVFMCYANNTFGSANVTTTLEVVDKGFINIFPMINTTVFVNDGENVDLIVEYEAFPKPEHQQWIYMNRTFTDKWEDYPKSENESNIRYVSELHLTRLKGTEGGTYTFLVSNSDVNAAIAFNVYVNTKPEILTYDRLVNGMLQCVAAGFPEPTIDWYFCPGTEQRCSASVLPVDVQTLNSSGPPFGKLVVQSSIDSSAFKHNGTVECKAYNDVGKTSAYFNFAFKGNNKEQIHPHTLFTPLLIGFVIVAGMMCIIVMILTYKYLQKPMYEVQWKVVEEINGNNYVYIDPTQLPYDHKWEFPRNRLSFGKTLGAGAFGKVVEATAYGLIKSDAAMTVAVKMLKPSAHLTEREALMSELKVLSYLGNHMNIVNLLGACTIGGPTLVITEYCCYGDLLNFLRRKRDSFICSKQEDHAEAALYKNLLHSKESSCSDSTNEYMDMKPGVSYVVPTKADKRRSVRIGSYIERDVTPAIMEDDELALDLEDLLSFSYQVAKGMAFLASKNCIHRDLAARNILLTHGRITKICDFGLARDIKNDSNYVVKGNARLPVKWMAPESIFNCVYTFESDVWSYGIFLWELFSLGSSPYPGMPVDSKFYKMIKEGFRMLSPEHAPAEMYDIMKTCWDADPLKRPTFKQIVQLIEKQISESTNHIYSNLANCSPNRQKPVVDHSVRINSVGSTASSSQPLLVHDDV

As to `Cc1ccc(-c2noc(C3CC3F)n2)cc1NC(=O)c1cnc2cc(C(C)OCCO)ccn12` (single isomer, unassigned) [Compound I-450, N-[5-[5-[(1R,2S)-2-fluorocyclopropyl]-1,2,4-]-7-[(1S*)-1-(2-hydroxyethoxadiazol-3-yl]-2-methyl-phenyloxy)ethyl]imidazo[1,2-a]pyridine-3-carboxamide], the IC50 was not above 50 nM.
In the case of `Cc1ccc(-c2noc([C@H]3C[C@@H]3F)n2)cc1NC(=O)c1cnn2ccc(C(F)F)cc12` [Compound I-494, 5-(difluoromethyl)-N-(5-(5-((1R,2S)-2-fluorocyclopropyl)-1,2,4-oxadiazol-3-yl)-2-methylphenyl)pyrazolo[1,5-a]pyridine-3-carboxamide] it was not above 50 nM; in that of `Cc1ccn2c(C(=O)Nc3cc(-c4noc(-c5ccccc5)n4)ccc3C)cnc2c1` [Compound I-736], not above 50 nM; in that of `Cc1ccn2c(C(=O)Nc3cc(-c4noc(-c5nc(C)oc5C)n4)ccc3C)cnc2c1` [Compound I-551], not above 50 nM.
For `Cc1ccc(-c2noc(C3CC(NC(=O)OC(C)(C)C)C3)n2)cc1NC(=O)c1cnc2cc(Cl)ccn12` (centres unmarked) [Compound I-747], the IC50 is 50 to 500 nM.
As for `Cc1ccc(-c2noc([C@H]3C[C@@H]3F)n2)cc1NC(=O)c1cnc2c(F)c(COCCO)ccn12` [Compound I-472], the figure is 50 to 500 nM.
As for `Cc1ccc(-c2noc(-c3cccnc3)n2)cc1NC(=O)c1cnc2ccccn12` [Compound I-738], the figure is 50 to 500 nM; as for `Cc1nc(-c2ccc(C)c(NC(=O)c3cnc4cc(OCCCN5CCCC5)ccn34)c2)no1` [Compound I-629, N-(2-methyl-5-(5-methyl-1,2,4-oxadiazol-3-yl)phenyl)-7-(3-(pyrrolidin-1-yl)propoxy)imidazo[1,2-a]pyridine-3-carboxamide], not above 50 nM; as for `Cc1ccc(-c2noc([C@H]3C[C@@H]3F)n2)cc1NC(=O)c1cnc2cc3c(cn12)COC3C` (single isomer, unassigned) [Compound I-470, (6S*)—N-[5-[5-[(1R,2S)-2-fluorocyclopropyl]-1,2,4-oxadiazol-3-yl]-2-methyl-phenyl]-6-methyl-5-oxa-1,10-diazatricyclo[7.3.0.03,7]dodeca-2,7,9,11-tetraene-12-carboxamide], not above 50 nM.
As to `COC(C)(C)COCc1ccn2c(C(=O)Nc3cc(-c4noc([C@H]5C[C@@H]5F)n4)ccc3C)cnc2c1` [Compound I-465], the IC50 is 50 to 500 nM.
Take `Cc1ccc(-c2noc([C@H](C)O)n2)cc1NC(=O)c1cnc2cc(-c3cscn3)ccn12` [Compound I-721]: the IC50 was not above 50 nM.
Consider `Cc1ccc(-c2noc([C@H]3C[C@@H]3F)n2)cc1NC(=O)c1cnc2ccc(-c3cscn3)cn12` [Compound I-541, N-(5-(5-((1R,2S)-2-fluorocyclopropyl)-1,2,4-oxadiazol-3-yl)-2-methylphenyl)-6-(thiazol-4-yl)imidazo[1,2-a]pyridine-3-carboxamide], for which the IC50 was not above 50 nM.
Take `Cc1ccc(-c2noc([C@H]3C[C@@H]3F)n2)cc1NC(=O)c1cnc2cc(COCC3(O)COC3)ccn12` [Compound I-490, N-(5-(5-((1R,2S)-2-fluorocyclopropyl)-1,2,4-oxadiazol-3-yl)-2-methylphenyl)-7-(((3-hydroxyoxetan-3-yl)methoxy)methyl)imidazo[1,2-a]pyridine-3-carboxamide]: the 50% inhibitory concentration (IC50) is not above 50 nM.
In the case of `Cc1ccc(-c2noc([C@H]3C[C@@H]3F)n2)cc1NC(=O)c1cnc2cc(COCC(O)C(F)F)ccn12` (stereo partly drawn) [Compound I-499, 7-((3,3-difluoro-2-hydroxypropoxy)methyl)-N-(5-(5-((1R,2S)-2-fluorocyclopropyl)-1,2,4-oxadiazol-3-yl)-2-methylphenyl)imidazo[1,2-a]pyridine-3-carboxamide] it was not above 50 nM; in that of `Cc1ccc(-c2ncon2)cc1NC(=O)c1cnn2cc(-c3ccn(C)n3)ccc12` [Compound I-729], not above 50 nM.
As for `Cc1ccc(-c2noc([C@H]3C[C@@H]3F)n2)cc1NC(=O)c1cnc2cc(COCC(C)(C)O)c(F)cn12` [Compound I-498, 6-fluoro-N-[5-[5-[(1R,2S)-2-fluorocyclopropyl]-1,2,4-oxadiazol-3-yl]-2-methyl-phenyl]-7-[(2-hydroxy-2-methyl-propoxy)methyl]imidazo[1,2-a]pyridine-3-carboxamide], the IC50 is not above 50 nM.
`Cc1ccc(-c2noc([C@H]3C[C@@H]3F)n2)cc1NC(=O)c1cnc2ccc(-c3ccn(C)n3)cn12` [Compound I-531, N-(5-(5-((1R,2S)-2-fluorocyclopropyl)-1,2,4-oxadiazol-3-yl)-2-methylphenyl)-6-(1-methyl-1H-pyrazol-3-yl)imidazo[1,2-a]pyridine-3-carboxamide]: the IC50 was not above 50 nM.
Regarding `Cc1ccc(-c2noc([C@H]3C[C@@H]3F)n2)cc1NC(=O)c1cnc2cc(C(=O)O)ccn12` [Compound I-491], the IC50 lay in the range of 50 to 500 nM.
As for `Cc1nc(-c2ccc(C)c(NC(=O)c3cnc4ccccn34)c2)no1` [Compound I-564], the figure is 50 to 500 nM; as for `COc1ccn2c(C(=O)Nc3cc(-c4noc(-c5ccccc5)n4)ccc3C)cnc2c1` [Compound I-743], 500 to 5000 nM; as for `Cc1ccc(-c2noc(N3CC(F)(F)C3)n2)cc1NC(=O)c1cnc2cc(Cl)ccn12` [Compound I-601, 7-chloro-N-(5-(5-(3,3-difluoroazetidin-1-yl)-1,2,4-oxadiazol-3-yl)-2-methylphenyl)imidazo[1,2-a]pyridine-3-carboxamide], not above 50 nM.
Take `Cc1ccc(-c2noc(CC3CCCO3)n2)cc1NC(=O)c1cnc2cc(Cl)ccn12` (centres unmarked) [Compound I-615, 7-Chloro-N-[2-methyl-5-[5-(tetrahydrofuran-2-ylmethyl)-1,2,4-oxadiazol-3-yl]phenyl]imidazo[1,2-a]pyridine-3-carboxamide]: the IC50 is not above 50 nM.
As to `Cc1ccc(-c2noc(C3CC(O)C3)n2)cc1NC(=O)c1cnc2cc(-c3ccn(C)n3)ccn12` (centres unmarked) [Compound I-727], the IC50 was not above 50 nM.
For `Cc1ccc(-c2noc([C@H]3C[C@@H]3F)n2)cc1NC(=O)c1cnc2cc(COCC(C)O)ccn12` (single isomer, unassigned) [Compound I-469, N-[5-[5-[(1R,2S)-2-fluorocyclopropyl]-1,2,4-oxadiazol-3-yl]-2-methyl-phenyl]-7-[[(2S*)-2-hydroxypropoxy]methyl]imidazo[1,2-a]pyridine-3-carboxamide], the IC50 was not above 50 nM.
As for `Cc1ccc(-c2noc([C@H]3C[C@@H]3F)n2)cc1NC(=O)c1cnn2cccc(F)c12` [Compound I-487], the concentration for half-maximal inhibition (IC50) is 50 to 500 nM.
As for `COc1ccn2c(C(=O)Nc3cc(-c4noc(CCC(C)(C)O)n4)ccc3C)cnc2c1` [Compound I-561, N-(5-(5-(3-hydroxy-3-methylbutyl)-1,2,4-oxadiazol-3-yl)-2-methylphenyl)-7-methoxyimidazo[1,2-a]pyridine-3-carboxamide], the figure is not above 50 nM; as for `Cc1ccc(-c2noc([C@H]3C[C@@H]3F)n2)cc1NC(=O)c1cnc2cc(-c3cscn3)ccn12` [Compound I-547, N-(5-(5-((1R,2S)-2-fluorocyclopropyl)-1,2,4-oxadiazol-3-yl)-2-methylphenyl)-7-(thiazol-4-yl)imidazo[1,2-a]pyridine-3-carboxamide], not above 50 nM; as for `Cc1ccn2c(C(=O)Nc3cc(-c4noc(-c5cccnn5)n4)ccc3C)cnc2c1` [Compound I-550], 50 to 500 nM.
Turning to `Cc1nc(-c2ccc(C)c(NC(=O)c3cnc4cc(C5COC5)ccn34)c2)no1` [Compound I-687], the IC50 is 50 to 500 nM.
For the molecule `Cc1ccc(-c2noc([C@H]3C[C@@H]3F)n2)cc1NC(=O)c1cnc2cc3c(cn12)COC3C` (single isomer, unassigned) [Compound I-471, (6R*)—N-[5-[5-[(1R,2S)-2-fluorocyclopropyl]-1,2,4-oxadiazol-3-yl]-2-methyl-phenyl]-6-methyl-5-oxa-1,10-diazatricyclo[7.3.0.03,7]dodeca-2,7,9,11-tetraene-12-carboxamide], the IC50 was not above 50 nM.
As to `Cc1ccc(-c2noc(C[C@H](O)C(F)F)n2)cc1NC(=O)c1cnc2cc(OCC(C)(C)O)ccn12` [Compound I-576], the IC50 was not above 50 nM.
For the molecule `Cc1ccc(-c2noc([C@H]3C[C@@H]3F)n2)cc1NC(=O)c1cnc2cc([C@@H]3C[C@H]3CO)ccn12` [Compound I-481, N-[5-[5-[(1R,2S)-2-fluorocyclopropyl]-1,2,4-oxadiazol-3-yl]-2-methyl-phenyl]-7-[(1R,2R)-2 (hydroxymethyl)cyclopropyl]imidazo[1,2-a]pyridine-3-carboxamide], the IC50 is not above 50 nM.
`Cc1ccc(-c2noc(CC(O)C3COC3)n2)cc1NC(=O)c1cnc2ccccn12` (centres unmarked) [Compound I-591]: the IC50 was 50 to 500 nM.
As for `Cc1ccc(-c2noc(-c3cccnc3)n2)cc1NC(=O)c1cnn2cc(-c3ccn(C)n3)ccc12` [Compound I-723], the IC50 is not above 50 nM.
On to `Cc1ccc(-c2noc(CC(O)c3ccccc3)n2)cc1NC(=O)c1cnc2ccccn12` (centres unmarked) [Compound I-517, N-(5-(5-(2-hydroxy-2-phenylethyl)-1,2,4-oxadiazol-3-yl)-2-methylphenyl)imidazo[1,2-a]pyridine-3-carboxamide], for which the half-inhibitory concentration (IC50) was not above 50 nM.
